Measurements published in ChEMBL document CHEMBL3885861, “Open TG-GATES”.

Species: Rattus norvegicus
Assay: Open TG-GATES - Regimen: Single
Format: toxicity, organism-based, Sprague-Dawley
Design: regimen Single, gender Male, age 6 weeks
Details: in vivo, po, 0 mg/kg, route gavage, dose level Control; for APTT / Bas / Eos / Fbg / Hb / Ht / Lym / MCH / MCHC / MCV / Mono / Neu / PT / Plat / RBC / Ret / WBC: tissue Blood; for KIDNEY_L / KIDNEY_R / KIDNEY_TOTAL: tissue Kidney; for LIVER: tissue Liver; for A/G / ALP / ALT / AST / BUN / CRE / Ca / Cl / DBIL / GLC / IP / K / LDH / Na / PL / RALB / TBIL / TC / TG / TP / gamma-GTP: tissue Plasma

CC(C)NNC(=O)c1ccncc1 [IPRONIAZID]
TERMINAL_BW (3 h): 208.3 g | APTT (3 h): 21.1 s | Bas (3 h): 0% | Eos (3 h): 0.6% | Fbg (3 h): 318.8 mg/dL | Hb (3 h): 13.3 g/dL | Ht (3 h): 38.7% | Lym (3 h): 82.2% | MCH (3 h): 21.3 pg | MCHC (3 h): 34.3% | MCV (3 h): 62.1 fL | Mono (3 h): 1.6% | Neu (3 h): 15% | PT (3 h): 16.4 s | Plat (3 h): 108.8 x10_4/uL | RBC (3 h): 624.6 x10_4/ul | Ret (3 h): 7.2% | WBC (3 h): 72.6 x10_2/uL | KIDNEY_L (3 h): 0.9 g | KIDNEY_R (3 h): 0.9 g | KIDNEY_TOTAL (3 h): 1.9 g | LIVER (3 h): 9.7 g | A/G (3 h): 1.3 | ALP (3 h): 1798.2 IU/L | ALT (3 h): 41.4 IU/L | AST (3 h): 78.6 IU/L | BUN (3 h): 13.6 mg/dL | CRE (3 h): 0.2 mg/dL | Ca (3 h): 10.8 mg/dL | Cl (3 h): 107.6 meq/L | DBIL (3 h): 0.004 mg/dL | GLC (3 h): 190.2 mg/dL | IP (3 h): 8 mg/dL | K (3 h): 4.1 meq/L | LDH (3 h): 225 IU/L | Na (3 h): 142.4 meq/L | PL (3 h): 136.4 mg/dL | RALB (3 h): 3.1 g/dL | TBIL (3 h): 0.022 mg/dL | TC (3 h): 75.4 mg/dL | TG (3 h): 53.2 mg/dL | TP (3 h): 5.5 g/dL | gamma-GTP (3 h): 1.2 IU/L | TERMINAL_BW (6 h): 208.9 g | APTT (6 h): 23.2 s | Bas (6 h): 0% | Eos (6 h): 0.8% | Fbg (6 h): 305.8 mg/dL | Hb (6 h): 13.3 g/dL | Ht (6 h): 38.6% | Lym (6 h): 79.4% | MCH (6 h): 21.5 pg | MCHC (6 h): 34.3% | MCV (6 h): 62.5 fL | Mono (6 h): 2.4% | Neu (6 h): 16.6% | PT (6 h): 15.6 s | Plat (6 h): 115.7 x10_4/uL | RBC (6 h): 618.8 x10_4/ul | Ret (6 h): 8.7% | WBC (6 h): 96.2 x10_2/uL | KIDNEY_L (6 h): 0.9 g | KIDNEY_R (6 h): 1 g | KIDNEY_TOTAL (6 h): 1.9 g | LIVER (6 h): 9 g | A/G (6 h): 1.3 | ALP (6 h): 1530.2 IU/L | ALT (6 h): 38.6 IU/L | AST (6 h): 71.6 IU/L | BUN (6 h): 11.2 mg/dL | CRE (6 h): 0.2 mg/dL | Ca (6 h): 10.6 mg/dL | Cl (6 h): 105.8 meq/L | DBIL (6 h): 0.006 mg/dL | GLC (6 h): 180 mg/dL | IP (6 h): 9.3 mg/dL | K (6 h): 4.3 meq/L | LDH (6 h): 179.8 IU/L | Na (6 h): 141.4 meq/L | PL (6 h): 140.6 mg/dL | RALB (6 h): 3 g/dL | TBIL (6 h): 0.02 mg/dL | TC (6 h): 75.6 mg/dL | TG (6 h): 62.6 mg/dL | TP (6 h): 5.3 g/dL | gamma-GTP (6 h): 1 IU/L | TERMINAL_BW (9 h): 200.8 g | APTT (9 h): 22.6 s | Bas (9 h): 0% | Eos (9 h): 1% | Fbg (9 h): 314.5 mg/dL | Hb (9 h): 12.9 g/dL | Ht (9 h): 37.8% | Lym (9 h): 75.5% | MCH (9 h): 21.4 pg | MCHC (9 h): 34.3% | MCV (9 h): 62.6 fL | Mono (9 h): 2% | Neu (9 h): 20.5% | PT (9 h): 15.7 s | Plat (9 h): 110.7 x10_4/uL | RBC (9 h): 605.5 x10_4/ul | Ret (9 h): 8.4% | WBC (9 h): 86.5 x10_2/uL | KIDNEY_L (9 h): 0.9 g | KIDNEY_R (9 h): 0.9 g | KIDNEY_TOTAL (9 h): 1.9 g | LIVER (9 h): 8.5 g | A/G (9 h): 1.2 | ALP (9 h): 1450.5 IU/L | ALT (9 h): 41.2 IU/L | AST (9 h): 76.5 IU/L | BUN (9 h): 10.5 mg/dL | CRE (9 h): 0.2 mg/dL | Ca (9 h): 10.3 mg/dL | Cl (9 h): 107 meq/L | DBIL (9 h): 0.005 mg/dL | GLC (9 h): 178.2 mg/dL | IP (9 h): 9.8 mg/dL | K (9 h): 4 meq/L | LDH (9 h): 172.2 IU/L | Na (9 h): 141.8 meq/L | PL (9 h): 135 mg/dL | RALB (9 h): 3 g/dL | TBIL (9 h): 0.0175 mg/dL | TC (9 h): 81.8 mg/dL | TG (9 h): 39.8 mg/dL | TP (9 h): 5.5 g/dL | gamma-GTP (9 h): 1.2 IU/L | TERMINAL_BW (24 h): 216 g | APTT (24 h): 21.7 s | Bas (24 h): 0% | Eos (24 h): 1% | Fbg (24 h): 333.2 mg/dL | Hb (24 h): 13.5 g/dL | Ht (24 h): 39.1% | Lym (24 h): 77.8% | MCH (24 h): 21.4 pg | MCHC (24 h): 34.4% | MCV (24 h): 62.3 fL | Mono (24 h): 3% | Neu (24 h): 17.6% | PT (24 h): 16.7 s | Plat (24 h): 124 x10_4/uL | RBC (24 h): 627 x10_4/ul | Ret (24 h): 7.8% | WBC (24 h): 113.7 x10_2/uL | KIDNEY_L (24 h): 1 g | KIDNEY_R (24 h): 1 g | KIDNEY_TOTAL (24 h): 1.9 g | LIVER (24 h): 10.3 g | A/G (24 h): 1.2 | ALP (24 h): 1519.2 IU/L | ALT (24 h): 39.8 IU/L | AST (24 h): 76.8 IU/L | BUN (24 h): 17.2 mg/dL | CRE (24 h): 0.2 mg/dL | Ca (24 h): 10.9 mg/dL | Cl (24 h): 107.6 meq/L | DBIL (24 h): 0.002 mg/dL | GLC (24 h): 179.6 mg/dL | IP (24 h): 7.6 mg/dL | K (24 h): 4.4 meq/L | LDH (24 h): 287.6 IU/L | Na (24 h): 142.6 meq/L | PL (24 h): 152.8 mg/dL | RALB (24 h): 3.1 g/dL | TBIL (24 h): 0 mg/dL | TC (24 h): 82.2 mg/dL | TG (24 h): 84.4 mg/dL | TP (24 h): 5.6 g/dL | gamma-GTP (24 h): 1.8 IU/L
